Patent US11021441B2, “High solubility thioether quinones” (Wisconsin Alumni Research Foundation, priority 2017, dated 2021)

Assay: Redox couple / cyclic voltammetry in aqueous 1 M H2SO4
Assay type: physicochemical
Procedure: More preferably, a solution of mercaptoethanesulfonate is allowed to react with a suspension of benzoquinone in water (Scheme 16). 0.655 g of sodium mercaptoethanesulfonate in 10 ml of water with 60 microliters of acetic acid was treated with 0.438 g of benzoquinone and allowed to stir at room temperature for 45 minutes. The resulting mixture was filtered and the filtrate was extracted with three 5 ml portions of ethyl acetate. The aqueous phase was then diluted with 30 ml of ethanol and heated to clarify it. On cooling, crystals formed that gave ^1H and ^13C NMR spectra in D2O in accord with tetra-thioethylsulfonato hydroquinone, 52 (FIGS. 5A and 5B).
To 3.956 g of sodium 3-mercaptopropanesulfonate dispersed in 50 mL of nitrogen-purged N-methyl pyrrolidinone were added 10.5 mL of 2 M aqueous NaOH. Once mixed, 2.766 g of 1,8-dichloroanthraquinone were added (Scheme 28). The suspension was heated under nitrogen to 90° C. for six days then allowed to cool. 50 mL of water containing 1 mL of acetic acid was added to the cooled solution, which was further diluted with 25 mL water. The solution was extracted with four 50 mL portions of methylene chloride, and the aqueous phase was evaporated. The residue was dissolved with 35 mL of water and 60 mL of methanol was added. The mixture was heated until clear, and left to slowly cool. […]

reversible redox couple (aqueous 1 M H2SO4) [V vs. NHE]	Compound	reduction potential (cyclic voltammetry in 1 M H2SO4)
	O=C1c2cccc(SCCCS(=O)(=O)[O-])c2C(=O)c2c(SCCCS(=O)(=O)[O-])cccc21.[Na+].[Na+] [Compound 109]	approximately 85 mV vs. NHE
0.63	O=S(=O)([O-])CCSc1c(O)c(SCCS(=O)(=O)[O-])c(SCCS(=O)(=O)[O-])c(O)c1SCCS(=O)(=O)[O-].[Na+].[Na+].[Na+].[Na+] [Compound 52, 2,3,5,6-tetrakis(ethylsulfanyl-2′-sulfonate)-1,4-hydroquinone tetrasodium salt]	
